Tests used:
[1] = biological target: T1, human 20S proteasome, ChT-L peptidase; test: Chymotrypsin-like (ChT-L) activity of h20S probed with Suc-LLVY-AMC; assay type: biochemical
T1 construct: human proteasome isolated from erythrocytes; from tissue; host or cells: human erythrocytes

[2] = tested on: T2, human 20S proteasome, T-L peptidase; test: Trypsin-like (T-L) activity of h20S probed with Boc-LRR-AMC; assay type: biochemical; conditions: 100 μM Boc-LRR-AMC
T2 construct: human proteasome isolated from erythrocytes; from tissue; host or cells: human erythrocytes
Description: To assess the influence of substitutions increasing proteolytic stability on the modulators’ capacity to stimulate chymotrypsin-like, trypsin-like, and caspase-like activity of h20S, we used classic fluorogenic substrates: Suc-LLVY-AMC, Boc-LRR-AMC, and Z-LLE-AMC, respectively.
The effect of all synthesized peptidomimetics on the catalytic activity of the proteasome was tested using a human proteasome isolated from erythrocytes. Suc-LLVY-AMC, Boc-LRR-AMC, and Z-LLE-AMC fluorogenic substrates (Bachem, Bubendorf, Switzerland) were used for assessment of the chymotrypsin-, trypsin-, and caspase-like activities, respectively. A homemade FRET-type substrate Dabcyl-EDANS (Lys(Dabcyl)-[…]EDANS)-Gly)[26] was used as an additional probe. Stock solutions of the substrates and tested peptidomimetics were prepared in dimethyl sulfoxide (DMSO), ensuring that the final concentration of DMSO in all samples remained consistent at 2%. The small fluorogenic substrates were used at a final concentration of 100 μM, while Dabcyl-EDANS was prepared at a final concentration of 15 μM. […] Activity tests were conducted in 96-well plates using 50 mM Tris/HCl, pH 8.0, as an assay buffer. The final concentration of h20S proteasome was adjusted to 0.002 mg/mL (2.8 nM). The fluorescence of released aminomethylcoumarin (AMC) was monitored at 460 nm (λex was 380 nm), while the hydrolysis of Dabcyl-EDANS was detected by measuring emission at 493 nm (λex was set at 335 nm). Fluorescence measurements were taken continuously every 2 min over a 60 min period at 37 °C using a Tecan Infinite M200Pro spectrofluorometer (Tecan Trading AG, Männedorf, Switzerland). All activity assays were performed in at least three independent replicates. The relative activity was calculated in relation to the catalytic activity of the vehicle (DMSO)-treated latent proteasome, which was regarded as 100%. Statistical analysis was performed using the one-way ANOVA followed by Tukey’s post-hoc test. P-value <0.05 was considered statistically significant.

[3] = tested on: human 20S proteasome (Tau-441 substrate); test: Tau-441 degradation by h20S (SDS-PAGE); assay type: biochemical; conditions: 10 μM modulator, 37 °C, 1.5 h
Description: (§1) The effectiveness of the compounds has also been examined by using proteins as substrates. By means of SDS-PAGE electrophoresis, we checked the extent to which model proteins were digested by the 20S proteasome alone and after its stimulation by 10 μM modulators. […] After incubation with the enzyme in the presence of each modulator, less than 40% of synuclein remained. […] The experiment was performed as it was described.[36] Briefly, α-synuclein (rPeptide, […], USA) and Tau-441 (Novus Biologicals, Centennial, CO, USA) were dissolved in 20 mM HEPES buffer (pH 7.4) and mixed with a human 20S proteasome. Samples were incubated at 37 °C for 1.5 h, after which the reaction was terminated by adding 4× Laemmli buffer. The levels of undigested proteins were evaluated by SDS-PAGE. The band intensities of proteins incubated with […] in the presence of a modulator were compared to those of proteins incubated with the enzyme alone, which were set as 100%. Three independent experiments were performed for each protein. The results are presented as the means ± SD. One-way ANOVA with Tukey's post-hoc test was used to determine statistical significance.

[4] = tested on: human 20S proteasome (α-synuclein substrate); test: α-Synuclein degradation by h20S (SDS-PAGE); assay type: biochemical; conditions: 10 μM modulator, 37 °C, 1.5 h; h20S alone = 100%
Description: as §1

[5] = tested on: T3, proteasome in HEK293T cell lysate; test: Proteasome activity in the HEK293T cell lysate, Suc-LLVY-AMC; assay type: biochemical, human
T3 construct: endogenous in cells; host or cells: HEK293T cell lysate
Description: To assess whether activators are able to stimulate the proteasome in the cellular environment, we conducted experiments using the HEK293T cell lysate. […] The experiment was carried out as it was described.[25] Briefly, HEK293T cells were lysed, and the lysate was treated with the modulators at a concentration of 1, 2.5, 5, 10, and 25 μM, only in the case of modulators with the TAT or 6R sequence attached were the concentrations 0.5, 1, 2.5, 5, and 10 μM. The proteasome activity was probed using Suc-LLVY-AMC substrate. One μM bortezomib was used as a negative control. All experiments were performed in at least three independent replicates. One-way ANOVA with Tukey’s post-hoc test was used to determine statistical significance.

C[C@@H](O)[C@H](NC(=O)[C@H](Cc1ccccc1)NC(=O)[C@H](Cc1ccc(O)cc1)NC(=O)CN(CCCCN)C(=O)[C@H](CCCNC(=N)N)NC(=O)[C@H](CCCNC(=N)N)NC(=O)[C@H](CCCNC(=N)N)NC(=O)[C@H](CCC(N)=O)NC(=O)[C@H](CCCNC(=N)N)NC(=O)[C@H](CCCNC(=N)N)NC(=O)[C@H](CCCCN)NC(=O)[C@H](CCCCN)NC(=O)[C@@H](N)CCCNC(=N)N)C(=O)NCC(=O)N[C@@H](CO)C(=O)N[C@@H](CCCCN)C(=O)N[C@@H](CC(=O)O)C(=O)N[C@@H](Cc1c[nH]c2ccccc12)C(=O)N[C@@H](CCCNC(=N)N)C(=O)N[C@@H](CO)C(=O)N[C@@H](Cc1ccc(O)cc1)C(=O)N[C@@H](Cc1ccc(O)cc1)C(=O)N[C@@H](CO)C(=O)O [1f]
EC50 ([1]; Suc-LLVY-AMC, n = 6, EC50 = concentration causing 50% growth of activity vs vehicle control): 0.54 ± 0.1 µM
stimulation of proteasome activity ([1]; as summed up in Conclusions, substrate not named there): approximately 17 times
stimulation of the ChT-L peptidase ([1]; at 1 μM concentration, Suc-LLVY-AMC): approximately 16 fold
T-L stimulating capacity, Boc-LRR-AMC [2]: activated the T-L less and less with an increasing concentration
Tau protein digested by h20S [3]: more than 90%
α-synuclein remaining after incubation with h20S [4]: less than 40%
activation of the proteasome in HEK293T cell lysate ([5]; 5 μM): approximately 4 fold
efficacy in HEK293T cell lysate ([5]; compared with 1a): higher efficacy than their parent compound 1a
